Common to all, as to experiment: Kinase selectivity, P33-radiolabeled assay
Holding throughout (format): biochemical
What all share (conditions): 10 μM ATP

One experiment deals with T1, CDK9/cyclin T1 (Homo sapiens, UniProt P50750).
T1 construct: purchased Reaction Biology Corp
In a few lines: (§1)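 ATP at 10 μM; test article at 10 μM, single point, two replicates. Output is activity as % of DMSO.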

A further experiment has as its target T2, MST2/STK3 (Homo sapiens, UniProt Q13188).
T2 construct: purchased Reaction Biology Corp
T2 sequence (Q13188 1-491): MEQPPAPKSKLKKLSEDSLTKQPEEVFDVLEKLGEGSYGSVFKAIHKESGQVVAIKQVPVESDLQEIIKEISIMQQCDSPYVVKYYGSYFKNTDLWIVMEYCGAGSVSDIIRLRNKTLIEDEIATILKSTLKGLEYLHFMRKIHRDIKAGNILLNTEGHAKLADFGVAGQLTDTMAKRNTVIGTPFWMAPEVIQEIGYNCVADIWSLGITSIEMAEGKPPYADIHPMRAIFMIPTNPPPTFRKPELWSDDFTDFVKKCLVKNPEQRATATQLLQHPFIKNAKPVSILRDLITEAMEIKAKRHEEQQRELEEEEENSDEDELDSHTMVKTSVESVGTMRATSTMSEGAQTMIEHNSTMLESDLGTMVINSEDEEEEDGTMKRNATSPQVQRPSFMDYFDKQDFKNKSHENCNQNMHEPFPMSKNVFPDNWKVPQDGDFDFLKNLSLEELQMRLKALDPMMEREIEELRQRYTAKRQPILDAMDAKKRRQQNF
In a few lines:
as §1

The target in another experiment is T3, MLK3/MAP3K11 (Homo sapiens, UniProt Q16584).
T3 construct: purchased Reaction Biology Corp
An outline of the steps:
as §1

Another experiment has as its target T4, JAK2 (Homo sapiens, UniProt O60674).
T4 construct: purchased Reaction Biology Corp
An outline of the steps:
as §1

The target in a further experiment is T5, LATS2 (Homo sapiens, UniProt Q9NRM7).
T5 construct: purchased Reaction Biology Corp
T5 sequence (Q9NRM7 1-1088): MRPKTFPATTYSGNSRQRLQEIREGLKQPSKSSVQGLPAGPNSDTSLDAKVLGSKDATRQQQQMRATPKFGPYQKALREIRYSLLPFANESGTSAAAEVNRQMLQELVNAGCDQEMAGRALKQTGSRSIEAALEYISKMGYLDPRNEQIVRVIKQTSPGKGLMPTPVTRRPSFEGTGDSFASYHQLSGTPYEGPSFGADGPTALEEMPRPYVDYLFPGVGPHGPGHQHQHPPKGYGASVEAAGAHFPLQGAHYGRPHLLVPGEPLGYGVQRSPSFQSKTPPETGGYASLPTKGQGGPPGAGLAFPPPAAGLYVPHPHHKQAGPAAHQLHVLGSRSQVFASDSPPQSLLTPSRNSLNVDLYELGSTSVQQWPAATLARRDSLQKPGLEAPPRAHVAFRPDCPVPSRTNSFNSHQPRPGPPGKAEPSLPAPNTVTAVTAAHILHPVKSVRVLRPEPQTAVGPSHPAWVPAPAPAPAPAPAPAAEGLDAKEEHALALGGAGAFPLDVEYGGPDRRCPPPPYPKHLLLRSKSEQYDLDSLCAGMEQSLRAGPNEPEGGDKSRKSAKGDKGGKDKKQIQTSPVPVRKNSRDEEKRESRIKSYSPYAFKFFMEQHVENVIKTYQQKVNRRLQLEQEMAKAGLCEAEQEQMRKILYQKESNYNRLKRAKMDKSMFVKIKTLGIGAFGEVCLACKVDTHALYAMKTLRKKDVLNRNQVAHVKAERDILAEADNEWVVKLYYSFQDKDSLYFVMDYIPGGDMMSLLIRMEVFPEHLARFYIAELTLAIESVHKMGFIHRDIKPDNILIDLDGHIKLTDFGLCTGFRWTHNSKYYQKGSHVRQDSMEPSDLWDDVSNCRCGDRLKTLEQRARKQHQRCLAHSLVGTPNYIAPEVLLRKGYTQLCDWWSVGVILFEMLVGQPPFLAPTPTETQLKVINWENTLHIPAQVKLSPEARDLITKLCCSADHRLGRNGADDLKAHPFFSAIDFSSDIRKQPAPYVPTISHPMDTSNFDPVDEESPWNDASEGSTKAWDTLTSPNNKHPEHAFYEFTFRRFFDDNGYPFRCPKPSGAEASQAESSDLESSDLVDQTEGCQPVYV
An outline of the steps:
as §1

Another experiment addresses T6, PKG1a (Homo sapiens, UniProt Q13976).
T6 construct: purchased Reaction Biology Corp
T6 sequence (Q13976 1-671): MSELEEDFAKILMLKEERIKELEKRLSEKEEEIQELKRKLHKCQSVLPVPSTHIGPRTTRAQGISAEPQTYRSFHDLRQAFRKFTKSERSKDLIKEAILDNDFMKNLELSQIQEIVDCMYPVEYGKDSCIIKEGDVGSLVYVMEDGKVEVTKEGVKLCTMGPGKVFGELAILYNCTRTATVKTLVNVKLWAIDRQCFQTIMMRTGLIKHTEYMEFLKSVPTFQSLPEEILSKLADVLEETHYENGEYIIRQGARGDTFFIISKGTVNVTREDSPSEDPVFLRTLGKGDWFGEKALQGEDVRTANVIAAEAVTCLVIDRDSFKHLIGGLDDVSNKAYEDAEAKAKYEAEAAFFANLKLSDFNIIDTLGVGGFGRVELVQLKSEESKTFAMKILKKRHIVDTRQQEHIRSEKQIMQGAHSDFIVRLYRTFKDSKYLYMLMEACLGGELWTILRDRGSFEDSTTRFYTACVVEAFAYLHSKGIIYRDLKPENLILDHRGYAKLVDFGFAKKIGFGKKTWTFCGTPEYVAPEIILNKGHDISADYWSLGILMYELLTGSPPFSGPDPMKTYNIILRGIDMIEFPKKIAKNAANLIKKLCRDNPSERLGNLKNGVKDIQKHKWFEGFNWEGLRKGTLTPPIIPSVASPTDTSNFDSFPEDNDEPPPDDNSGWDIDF
An outline of the steps:
as §1

The mark [1] stands for this setting: read-out: % Enzyme Activity (relative to DMSO controls) AVG.
[2] abbreviates: read-out: % Enzyme Activity (relative to DMSO controls) Data 1.
The mark [3] stands for this setting: read-out: % Enzyme Activity (relative to DMSO controls) Data 2.

For one molecule, remaining activity results are on record in publication PMC4979471 (Cell Death Discovery, 2015).

Where two headings read alike, the source gives them in different places.

T4 sequence (O60674 whole entry): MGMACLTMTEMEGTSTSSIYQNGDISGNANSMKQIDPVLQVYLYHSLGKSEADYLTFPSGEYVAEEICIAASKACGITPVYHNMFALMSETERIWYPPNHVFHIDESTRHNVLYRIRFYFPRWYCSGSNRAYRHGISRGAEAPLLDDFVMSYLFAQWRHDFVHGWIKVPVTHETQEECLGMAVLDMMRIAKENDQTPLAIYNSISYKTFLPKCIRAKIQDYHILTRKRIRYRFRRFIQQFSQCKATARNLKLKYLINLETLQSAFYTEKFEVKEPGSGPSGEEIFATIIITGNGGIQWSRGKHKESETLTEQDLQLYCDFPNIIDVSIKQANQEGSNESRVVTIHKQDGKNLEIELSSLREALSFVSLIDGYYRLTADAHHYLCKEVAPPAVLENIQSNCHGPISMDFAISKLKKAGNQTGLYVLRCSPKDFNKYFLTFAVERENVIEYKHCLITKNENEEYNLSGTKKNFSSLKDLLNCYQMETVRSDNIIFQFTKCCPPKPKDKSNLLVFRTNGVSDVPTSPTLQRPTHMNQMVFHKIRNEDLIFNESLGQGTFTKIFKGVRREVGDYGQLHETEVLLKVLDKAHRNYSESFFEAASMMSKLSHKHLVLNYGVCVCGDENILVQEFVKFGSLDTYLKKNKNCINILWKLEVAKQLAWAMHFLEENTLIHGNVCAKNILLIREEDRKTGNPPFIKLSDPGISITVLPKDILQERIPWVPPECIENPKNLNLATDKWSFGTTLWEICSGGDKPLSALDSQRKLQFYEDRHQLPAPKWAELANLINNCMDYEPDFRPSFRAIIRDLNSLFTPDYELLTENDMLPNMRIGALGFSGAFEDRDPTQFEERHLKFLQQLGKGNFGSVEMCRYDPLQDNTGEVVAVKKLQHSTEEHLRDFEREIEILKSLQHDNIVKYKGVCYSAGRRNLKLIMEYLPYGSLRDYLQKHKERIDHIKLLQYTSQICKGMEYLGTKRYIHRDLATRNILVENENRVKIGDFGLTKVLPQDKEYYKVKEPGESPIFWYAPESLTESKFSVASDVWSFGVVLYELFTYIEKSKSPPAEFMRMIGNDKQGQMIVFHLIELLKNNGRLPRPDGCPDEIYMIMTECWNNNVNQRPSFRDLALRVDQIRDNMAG
T3 sequence (Q16584 whole entry): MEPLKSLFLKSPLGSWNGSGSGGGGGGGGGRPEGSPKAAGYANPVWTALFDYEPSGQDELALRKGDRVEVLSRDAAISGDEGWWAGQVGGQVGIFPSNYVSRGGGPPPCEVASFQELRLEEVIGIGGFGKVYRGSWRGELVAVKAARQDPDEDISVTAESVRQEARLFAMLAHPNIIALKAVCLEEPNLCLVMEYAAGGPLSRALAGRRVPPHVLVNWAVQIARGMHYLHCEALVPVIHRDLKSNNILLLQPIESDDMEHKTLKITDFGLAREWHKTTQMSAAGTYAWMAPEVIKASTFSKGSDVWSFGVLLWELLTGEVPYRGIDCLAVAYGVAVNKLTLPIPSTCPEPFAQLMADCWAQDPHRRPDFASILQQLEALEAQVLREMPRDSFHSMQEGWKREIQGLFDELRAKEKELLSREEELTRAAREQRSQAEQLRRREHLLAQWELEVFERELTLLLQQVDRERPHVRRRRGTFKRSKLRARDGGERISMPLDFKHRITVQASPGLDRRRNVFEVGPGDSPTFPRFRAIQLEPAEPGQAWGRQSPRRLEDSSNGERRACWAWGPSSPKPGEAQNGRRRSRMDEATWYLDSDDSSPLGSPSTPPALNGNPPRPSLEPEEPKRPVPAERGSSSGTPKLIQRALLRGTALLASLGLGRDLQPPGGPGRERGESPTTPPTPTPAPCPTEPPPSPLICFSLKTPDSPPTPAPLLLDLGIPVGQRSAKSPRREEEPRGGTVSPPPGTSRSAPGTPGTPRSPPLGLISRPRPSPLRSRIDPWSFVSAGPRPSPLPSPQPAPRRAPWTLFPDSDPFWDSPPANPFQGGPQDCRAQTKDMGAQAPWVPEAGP
T1 sequence (P50750 whole entry): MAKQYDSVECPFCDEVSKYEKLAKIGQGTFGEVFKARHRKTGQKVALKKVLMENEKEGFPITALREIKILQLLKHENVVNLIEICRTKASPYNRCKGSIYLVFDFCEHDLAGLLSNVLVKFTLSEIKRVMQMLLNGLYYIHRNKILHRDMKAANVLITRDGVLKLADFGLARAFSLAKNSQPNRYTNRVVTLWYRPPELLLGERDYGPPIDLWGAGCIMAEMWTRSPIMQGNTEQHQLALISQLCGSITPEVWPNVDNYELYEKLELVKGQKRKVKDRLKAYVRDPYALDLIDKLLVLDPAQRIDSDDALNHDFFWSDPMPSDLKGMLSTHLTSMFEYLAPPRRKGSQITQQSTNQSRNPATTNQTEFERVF
T1 sequence (O60563 whole entry partner): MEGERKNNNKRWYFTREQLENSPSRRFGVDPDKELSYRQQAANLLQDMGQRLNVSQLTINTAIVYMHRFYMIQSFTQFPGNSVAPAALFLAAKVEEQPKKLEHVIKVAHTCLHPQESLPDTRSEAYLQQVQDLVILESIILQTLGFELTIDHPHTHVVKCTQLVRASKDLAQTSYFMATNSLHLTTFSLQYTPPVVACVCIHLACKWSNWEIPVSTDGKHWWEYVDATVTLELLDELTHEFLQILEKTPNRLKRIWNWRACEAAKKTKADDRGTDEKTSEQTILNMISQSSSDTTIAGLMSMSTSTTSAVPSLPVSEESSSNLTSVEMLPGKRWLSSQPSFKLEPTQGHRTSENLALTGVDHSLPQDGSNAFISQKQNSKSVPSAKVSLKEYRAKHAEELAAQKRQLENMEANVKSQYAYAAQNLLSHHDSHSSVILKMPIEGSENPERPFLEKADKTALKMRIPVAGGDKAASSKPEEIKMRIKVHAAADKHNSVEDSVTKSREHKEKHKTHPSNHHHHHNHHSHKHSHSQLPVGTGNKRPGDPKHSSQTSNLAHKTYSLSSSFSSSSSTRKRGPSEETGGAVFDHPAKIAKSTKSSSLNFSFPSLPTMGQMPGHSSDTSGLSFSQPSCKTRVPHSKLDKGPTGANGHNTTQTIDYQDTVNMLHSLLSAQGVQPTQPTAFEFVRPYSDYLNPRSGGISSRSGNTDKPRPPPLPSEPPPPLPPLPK

In the case of `CC(C)(C)C(=O)N1N=CC[C@H]1c1ccccc1` [GSK′963], the remaining activity at 10 µM on CDK9/cyclin T1 (setting [1]) is 108%; at CDK9/cyclin T1 (setting [2]) it was 112%; at CDK9/cyclin T1 (setting [3]), 105%; on MST2/STK3 (setting [1]) it was 107%; at MST2/STK3 (setting [2]), 105%; on MST2/STK3 (setting [3]), 109%. Also, the remaining activity at 10 µM on MLK3/MAP3K11 (setting [1]) was 95%; at MLK3/MAP3K11 (setting [2]), 96%; at MLK3/MAP3K11 (setting [3]) it was 94%; on JAK2 (setting [1]), 105%; at JAK2 (setting [2]) it was 105%; on JAK2 (setting [3]) it was 105%. In addition, the remaining activity at 10 µM amounted to 117% at LATS2 (setting [1]); 112% at LATS2 (setting [2]); 121% on LATS2 (setting [3]); 90% on PKG1a (setting [1]); 92.4% at PKG1a (setting [2]); 87.7% at PKG1a (setting [3]).
